# Results taken from patent US20060235036A1, “Vanilloid receptor ligands and their use in treatments” (priority 2005, published 2006).
# Structures can show the parent of a compound that is named as a salt.
# Target: T1, human VR1 (Homo sapiens, UniProt Q8NER1)
# T1 construct: expressed in transfected cells
# Test: Human VR1 Capsaicin Antagonist Assay (45Ca2+ uptake, CHO cells stably expressing human VR1)
# Format: cell-based
# Conditions: capsaicin stimulus, Calcium-45 uptake
# Procedure: Compounds may be assayed using Chinese Hamster Ovary cell lines stably expressing either human VR1 or rat VR1 under a CMV promoter. Cells can be cultured in Growth Medium, routinely passaged at 70% confluency using trypsin and plated in the assay plate 24 hours prior to compound evaluation. Possible Growth Medium: • DMEM, high glucose (Gibco 11965-084). • 10% Dialyzed serum (Hyclone SH30079.03). • 1× Non-Essential Amino Acids (Gibco 11140-050). • 1× Glutamine-Pen-Strep (Gibco 10378-016). • Geneticin, 450 μg/mL (Gibco 10131-035). Compounds can be diluted in 100% DMSO and tested for activity over several log units of concentration [40 μM-2 pM]. Compounds may be further diluted in HBSS buffer (pH 7.4) 0.1 mg/mL BSA, prior to evaluation. Final DMSO concentration in assay would be 0.5%. Each assay plate can be controlled with a buffer only and a known antagonist compound (either capsazepine or one of the described VR1 antagonists). Activation of VR1 can be achieved in these cellular assays using either a capsaicin stimulus (ranging from 0.1-1 μM) or by an acid stimulus (addition of 30 mM Hepes/Mes buffered at pH 4.1). Compounds may also tested in an assay format to evaluate their agonist properties at VR1. • Capsaicin Antagonist Assay: Compounds may be pre-incubated with cells (expressing either human or rat VR1) for 2 minutes prior to addition of Calcium-45 and Capsaicin and then left for an additional 2 minutes prior to compound washout. Capsaicin (0.5 […]) can be added in HAM's F12, 0.1 mg/mL BSA, 15 mM Hepes at pH 7.4. Final ^45Ca (Amersham CES3-2 mCi) at 10 μCi/mL. • Acid Antagonist Assay: Compounds can be pre-incubated with cells (expressing either human or rat VR1) for 2 minutes prior to addition of Calcium-45 in 30 mM Hepes/Mes buffer (Final Assay pH 5) and then left for an additional 2 minutes prior to compound washout. Final ^45Ca (Amersham CES3-2 mCi) at 10 μCi/mL. • Agonist Assay: Compounds can be incubated with cells (expressing either human or rat VR1) for 2 minutes in the presence of Calcium-45 prior to compound washout. Final ^45Ca (Amersham CES3-2 mCi) at 10 μCi/mL. • Compound Washout and Analysis: Assay plates can be washed using an ELX405 plate washer (Bio-Tek Instruments Inc.) immediately after functional assay. One can wash 3× with PBS Mg2^+/Ca^2+ free, 0.1 mg/mL BSA, aspirating between washes. Plates may be read using a MicroBeta Jet (Wallac Inc.). Compound activity may then calculated using appropriate computational algorithms.
# T1 sequence (Q8NER1 whole entry): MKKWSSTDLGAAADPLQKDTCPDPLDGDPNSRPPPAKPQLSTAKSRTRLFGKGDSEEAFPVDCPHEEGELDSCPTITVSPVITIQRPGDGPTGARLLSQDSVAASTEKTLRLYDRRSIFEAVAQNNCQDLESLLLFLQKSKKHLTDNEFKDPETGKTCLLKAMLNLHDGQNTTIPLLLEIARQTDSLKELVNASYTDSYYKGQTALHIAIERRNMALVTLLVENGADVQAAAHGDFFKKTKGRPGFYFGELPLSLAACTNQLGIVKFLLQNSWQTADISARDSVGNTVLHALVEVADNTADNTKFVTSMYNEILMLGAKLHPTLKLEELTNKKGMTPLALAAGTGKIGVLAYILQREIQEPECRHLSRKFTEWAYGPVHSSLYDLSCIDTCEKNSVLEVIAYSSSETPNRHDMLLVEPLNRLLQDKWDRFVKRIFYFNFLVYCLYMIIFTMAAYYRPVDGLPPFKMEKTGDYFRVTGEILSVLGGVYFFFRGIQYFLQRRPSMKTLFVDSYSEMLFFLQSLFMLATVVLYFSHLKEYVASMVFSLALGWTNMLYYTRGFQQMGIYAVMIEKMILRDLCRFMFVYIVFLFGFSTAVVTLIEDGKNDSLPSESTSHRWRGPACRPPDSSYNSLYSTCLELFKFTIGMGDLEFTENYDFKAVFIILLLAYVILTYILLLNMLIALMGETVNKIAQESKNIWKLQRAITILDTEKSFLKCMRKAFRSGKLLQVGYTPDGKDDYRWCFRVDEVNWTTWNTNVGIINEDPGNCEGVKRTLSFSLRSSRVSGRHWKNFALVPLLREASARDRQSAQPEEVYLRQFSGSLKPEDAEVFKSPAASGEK
row,Structure (SMILES),IC50 [nM]
1,"CC(C)(C)OC(=O)N1CCC[C@H]1C(=O)Nc1cc(C(F)(F)F)ccc1-c1cc(Nc2cccc3c2C[C@@H](O)CC3)ncn1 (mixture of isomers) [Example 2, (2S)-tert-Butyl 2-((2-(6-((7S)-7-hydroxy-5,6,7,8-tetrahydro-naphthalen-1-ylamino)pyrimidin-4-yl)-5-(trifluoromethyl)phenyl)-carbamoyl)-pyrrolidine-1-carboxylate and (2S)-tert-Butyl 2-((2-(6-((7S)-7-hydroxy-5,6,7,8-tetrahydro-naphthalen-1-ylamino)pyrimidin-4-yl)-5-(trifluoromethyl)phenyl)-carbamoyl)-pyrrolidine-1-carboxylate]",< 100
2,"CC(C)CN1CCCCC1CNc1nc(C(F)(F)F)ccc1-c1cc(Nc2cccc3c2CC(O)CC3)ncn1 (mixture of isomers) [Example 1, (2R,S)-8-(6-(2-(((2R,S)-1-Isobutylpiperidin-2-yl)methylamino)-6-(trifluoro-methyl)pyridin-3-yl)pyrimidin-4-ylamino)-1,2,3,4-tetrahydronaphthalen-2-ol hydrochloride]",< 100
3,"CC(C)N1CCC[C@H]1C(=O)Nc1cc(C(F)(F)F)ccc1-c1cc(Nc2cccc3c2C[C@@H](O)CC3)ncn1 (mixture of isomers) [Example 3, (2S)—N-(2-(6-(7S)-7-Hydroxy-5,6,7,8-tetrahydronaphthalen-1-ylamino)pyrimidin-4-yl)-5-(trifluoromethyl)phenyl)-1-isopropylpyrrolidine-2-carboxamide hydrochloride and (2S)—N-(2-(6-(7R)-7-Hydroxy-5,6,7,8-tetrahydro-naphthalen-1-ylamino)pyrimidin-4-yl)-5-(trifluoromethyl)phenyl)-1-isopropylpyrrolidine-2-carboxamide hydrochloride]",< 100

# Results, then the compound that gave them:
row,IC50 [nM],Structure (SMILES)
1,< 100,"CC(C)N1C(C)CC[C@H]1C(=O)Nc1cc(C(F)(F)F)ccc1-c1cc(Nc2cccc3c2CC(O)CC3)ncn1 (mixture of isomers) [Example 5, (2S, 5R,S, 7R,S)—N-(2-(6-(7-Hydroxy-5,6,7,8-tetrahydronaphthalen-1-ylamino)pyrimidin-4-yl)-5-(trifluoromethyl)phenyl)-1-isopropyl-5-methylpyrrolidine-2-carboxamide hydrochloride]"
2,< 100,"CC1CC[C@@H](C(=O)Nc2cc(C(F)(F)F)ccc2-c2cc(Nc3cccc4c3CC(O)CC4)ncn2)N1 (mixture of isomers) [Example 4, (2S, 5R,S, 7R,S)—N-(2-(6-(7-Hydroxy-5,6,7,8-tetrahydronaphthalen-1-ylamino)pyrimidin-4-yl)-5-(trifluoromethyl)phenyl)-5-methylpyrrolidine-2-carboxamide hydrochloride]"
3,< 100,"CC(C)CN1C(C)CC[C@H]1C(=O)Nc1cc(C(F)(F)F)ccc1-c1cc(Nc2cccc3c2CC(O)CC3)ncn1 (mixture of isomers) [Example 6, (2S, 5R,S, 7R,S)—N-(2-(6-(7-Hydroxy-5,6,7,8-tetrahydronaphthalen-1-ylamino)pyrimidin-4-yl)-5-(trifluoromethyl)phenyl)-1-isobutyl-5-methylpyrrolidine-2-carboxamide hydrochloride]"
4,< 100,"CC(C)N1CCC[C@H]1C(=O)Nc1cc(C(F)(F)F)ccc1-c1cc(Nc2cccc3c2C[C@H](O)CC3)ncn1 (mixture of isomers) [Example 3, (2S)—N-(2-(6-(7S)-7-Hydroxy-5,6,7,8-tetrahydronaphthalen-1-ylamino)pyrimidin-4-yl)-5-(trifluoromethyl)phenyl)-1-isopropylpyrrolidine-2-carboxamide hydrochloride and (2S)—N-(2-(6-(7R)-7-Hydroxy-5,6,7,8-tetrahydro-naphthalen-1-ylamino)pyrimidin-4-yl)-5-(trifluoromethyl)phenyl)-1-isopropylpyrrolidine-2-carboxamide hydrochloride]"
